Data set [1] has as its system Human MoDCs. Kind of data set: Activin-A secretion by stimulated MoDCs. The class given is cell-based. Conditions: MoDCs in GM-CSF and IL-4, 2-72 hours. Here is the method:
Human MoDCs were co-cultured, in a medium containing both GM-CSF and IL-4, with one of (i) intact E. coli, (ii) CD40L, (iii) a TLR ligand (LPS, R848, Poly I:C, or Pam3Cys, which bind, respectively, to TLR4, 7/8, 3, and 2/6), or (iv) one of the inflammatory mediators PGE2 or ATP. Culture was carried out for from 2-72 hours. Supernatants were collected, and assayed for activin-A, using standard methods.

Data set [2] has as its system Human NK cells. Kind of data set: IFN-γ ELISA of purified NK cells. The class given is cell-based. The conditions noted are these: for IFN-γ production: NK cells. As for the experimental part: A total of 1×10^5 highly purified human NK cells were cultured for 20 hours in medium supplemented with 20 U/ml IL-2, and 10 ng/ml IL-12. Either human recombinant activin-A, or TGF-β was added to the cultures, at concentrations of 10, 50 and 100 ng/ml. Supernatants were then tested for IFN-γ via ELISA, using standard methods. In these experiments 1×10^5 highly purified human NK cells were cultured as above, but were cultured with Poly I:C (10 μg/ml), or LPS (100 ng/ml), with or without 10, 50, or 100 ng/ml of recombinant human activin-A. In some cases, the known compound “SB431542,” which blocks activin-A binding to receptors was added. IFN-γ was then measured via ELISA, or by intracellular cytokine staining after 16 hours of culture, via addition of 1 μg/ml BFA, to prevent cytokine release. The impact of activin-A on production of IFN-γ by NK cells, in the absence of dendritic cells, was ascertained. Purified NK cells (1×10^5) were cultured in 96 well-plants, in media that was supplemented with 20 U/ml IL-2 and 10 ng/ml, IL-12, in the absence of, or with increasing concentrations of either activin-A, or TGF-β. Culture supernatants were assayed for IFN-γ after 24 hours of culture, using ELISAs, as described supra. As in the prior experiments, 1×10^5 purified NK cells were cultured in media supplemented with IL-2 only, or IL-2 plus IL-12, either with or without one of poly I:C or LPS, in the presence or absence of increased levels of activin-A.

The test system of data set [3] is NK cells. Kind of data set: NK cell viability by caspase and PI staining. The format is cell-based, human. The conditions noted are these: 24 hours. As for the experimental part:
With respect to testing viability, 1×10^5 purified NK cells were cultured as described supra, in 96 well-plates. After 24 hours of culture, cells were stained with antibodies to polycaspase, caspase 3/7, caspase 8 and PI.

Data set [4] concerns NK cells (target cells K562 or Jurkat cells). Kind of data set: NK cell killing of calcein-labeled target cells. The format is cell-based, human. The conditions noted are these: 100 ng/ml, 3 days culture, K562 or Jurkat targets, 4 hours. Here is the method:
1×10^6 purified NK cells were cultured in 24 well-plates, either with a high dose of IL-2 (100 U/ml), or a combination of 20 U/ml of IL-2 and IL-12. The culturing took place in the absence of either of activin-A or TGF-β or 100 ng/ml of one of them. The culture continued for 3 days.
After the 3 days of culture, the NK cells were combined with target cells K562 or Jurkat cells, at effector (NK cells): target (K562 or Jurkat cells) ratios of 5:1, 2:1, and 0.1:1. The target cells had been labeled with calcein previously. The total number of labeled target cells was 2×10^4, and the mixture was incubated for 4 hours. The efficiency of killing was determined by measuring calcein dye release via spectrometry.

The test system of data set [5] is NK cells. Kind of data set: NKp30 expression on NK cells by flow cytometry. The class given is cell-based, human. The conditions noted are these: NK cells after 3 day culture, 100 ng/ml. As for the experimental part: In order to investigate the mechanism behind these differences, the same NK cells were purified and cryopreserved immediately after the 3 day culture period. The cells were thawed, washed, and stained for NCR. NKp30, with expression levels determined via flow cytometry. The level of expression was also determined using “ex vivo” samples, and NK cells that were cultured, without exposure to targets.

Data set [6] deals with MoDCs. Kind of data set: qRT-PCR kinetics of activin receptor mRNA in stimulated MoDCs. The class given is cell-based, human. As for the experimental part:
In follow up experiments, the kinetics of gene expression described in Example 1 were studied, by stimulating MoDCs with either of trimeric CD40L or LPS, via quantitative real time PCR, or “qRT-PCR,” using standard methods and primers specific for activin βA and the activin receptor molecules ALK-2, and ALK-4. The primers differed from those used in the RT-PCR work, described supra. Stimulus was accomplished with 2 μg/ml of CD40L trimer, or 100 ng/ml of E. coli derived LPS for anywhere from 2-24 hours. As a control, MoDCs were cultured in GM-CSF plus IL-4 for the same length of time.

Regarding `Nc1ncnc2c1ncn2[C@@H]1O[C@H](COP(=O)(O)OP(=O)(O)OP(=O)(O)O)[C@@H](O)[C@H]1O` [ATP], the activin-A secretion result in data set [1] is “neither of these stimulated activin-A release above the levels observed in unstimulated MoDC cultures”.

As for `CCCCC[C@H](O)/C=C/[C@H]1[C@H](O)CC(=O)[C@@H]1C/C=C\CCCC(=O)O` [PGE2], the activin-A secretion entry in data set [1] is “neither of these stimulated activin-A release above the levels observed in unstimulated MoDC cultures”.

As for Pam3Cys, in data set [1], the activin-A secretion result is recorded as “did not”.

Turning to `NC(=O)c1ccc(-c2nc(-c3ccc4c(c3)OCO4)c(-c3ccccn3)[nH]2)cc1` [SB431542, reference compound], the “activin-A suppression of IFN-γ production” value in data set [2] (added at a concentration of 10 for 30 minutes before activin-A) is on record as “reversed”.

For Poly I:C [reference compound], in data set [1], the activin-A secretion entry is reported as “significant amounts of activin-A after 6 hours of stimulation”. Also, in data set [2] (added to stimulated NK cultures), the “IFN-γ production induced by stimulus” value was “enhanced IFN-γ production”.

Consider `CCOCc1nc2c(N)nc3ccccc3c2n1CC(C)(C)O` [R848], for which, in data set [1], the activin-A secretion result is on record as “significant amounts of activin-A after 6 hours of stimulation”.

For the compound TGF-β, the IFN-γ production result in data set [2] (IL-2 and IL-12, 20 hours, 10, 50, 100 ng/ml) was “suppressing the production of IFN-γ”; in data set [2] (IL-2 and IL-12, 24 hours, increasing concentrations), “inhibiting IFN-γ production”. In addition, in data set [3], the “apoptosis (polycaspase, caspase 3/7, caspase 8, PI staining)” value is reported as “no indication of apoptosis”. For the same compound, the “killing ability of NK cells” value in data set [4] was “significantly suppressed”. Moreover, the NKp30 expression result in data set [5] is on record as “substantial down regulation of the receptor”.

As for “CD40L: trimeric CD40L used to stimulate MoDCs”, the “activin RIIA mRNA” value in data set [6] (after 2 hours) was “upregulated”. For the same compound, the “ALK-4 mRNA” value in data set [6] (after 24 hours of stimulation, vs controls) is listed as “significantly higher than controls”; in data set [6] (early in the culture period), “downregulated”. In data set [6] (over 2-24 hours), the “activin RIIB mRNA” value is reported as “early down regulation, followed by increases over time”.

Source of the values: US20100279409A1, “METHOD FOR MODIFYING CELLUAR IMMUNE RESONSE BY MODULATING ACTIVIN ACTIVITY” (priority 2007, published 2010).
